Article PMC9138568 (2022)

System: G3-OTAapt1-FAM (F1) (DNA, aptamer) GGGGATCGGGTGTGGGTGGCGTAAAGGGAGCATC
Assay: fluorescence quenching (FAM, guanine PIET)
Details: Na+ 120 mM, Ca2+ 3 mM; 10 mM Tris-HCl pH 8.4, room temperature; 20 nM F1; calibration curve only

## C[C@@H]1Cc2c(Cl)cc(C(=O)N[C@@H](Cc3ccccc3)C(=O)O)c(O)c2C(=O)O1
  binding: yes
